{"source": "patent US20100317631A1", "about": "“Gel Composition and Transcrotal Application of a Composition for the Treatment of Hypogonadism” (Dr. August Wolff GmbH & Co. Arzneimittel, priority 2000, published 2010)", "origin": "cited, not measured here", "key": {"[1]": {"conditions": "intra muscular, standard dosage 250 mg"}}, "data": [{"smiles": "CCCCCCC(=O)O[C@H]1CC[C@H]2[C@@H]3CCC4=CC(=O)CC[C@]4(C)[C@H]3CC[C@]12C", "note": "[testosterone enanthat]", "values": [{"measurement": "terminal half-time value", "setting": "intra muscular administration", "result": 4.5, "unit": "days"}, {"measurement": "testosterone concentrations in serum achieved", "setting": "[1]", "result": "up to 50 nmol/l"}, {"measurement": "time at which serum testosterone passes the lower limit of normal range", "setting": "[1]", "result": "> 12", "unit": "days"}]}]}
